Reference: patent US20220380366A1, “HETEROCYCLIC SULFOXIMINE COMPOUND AND INTERMEDIATE THEREOF, PREPARATION METHOD THEREFOR, AND APPLICATION THEREOF” (priority 2019, published 2022)
pIC50: −log10 of the molar value. Read-outs that look alike come from different tables or passages of the source.

Experiments:
RET(V804M) mutant = molecular target: T1, RET(V804M) mutant (Homo sapiens, UniProt P07949, V804M); experiment: Biochemical IC50 of RET(V804M) mutant (33P-ATP filter binding, Reaction Biology)
T1 construct: purchased Reaction Biology Corporation (contract assay; enzyme is the CRO's)
T1 sequence (P07949 29-1114 V804M): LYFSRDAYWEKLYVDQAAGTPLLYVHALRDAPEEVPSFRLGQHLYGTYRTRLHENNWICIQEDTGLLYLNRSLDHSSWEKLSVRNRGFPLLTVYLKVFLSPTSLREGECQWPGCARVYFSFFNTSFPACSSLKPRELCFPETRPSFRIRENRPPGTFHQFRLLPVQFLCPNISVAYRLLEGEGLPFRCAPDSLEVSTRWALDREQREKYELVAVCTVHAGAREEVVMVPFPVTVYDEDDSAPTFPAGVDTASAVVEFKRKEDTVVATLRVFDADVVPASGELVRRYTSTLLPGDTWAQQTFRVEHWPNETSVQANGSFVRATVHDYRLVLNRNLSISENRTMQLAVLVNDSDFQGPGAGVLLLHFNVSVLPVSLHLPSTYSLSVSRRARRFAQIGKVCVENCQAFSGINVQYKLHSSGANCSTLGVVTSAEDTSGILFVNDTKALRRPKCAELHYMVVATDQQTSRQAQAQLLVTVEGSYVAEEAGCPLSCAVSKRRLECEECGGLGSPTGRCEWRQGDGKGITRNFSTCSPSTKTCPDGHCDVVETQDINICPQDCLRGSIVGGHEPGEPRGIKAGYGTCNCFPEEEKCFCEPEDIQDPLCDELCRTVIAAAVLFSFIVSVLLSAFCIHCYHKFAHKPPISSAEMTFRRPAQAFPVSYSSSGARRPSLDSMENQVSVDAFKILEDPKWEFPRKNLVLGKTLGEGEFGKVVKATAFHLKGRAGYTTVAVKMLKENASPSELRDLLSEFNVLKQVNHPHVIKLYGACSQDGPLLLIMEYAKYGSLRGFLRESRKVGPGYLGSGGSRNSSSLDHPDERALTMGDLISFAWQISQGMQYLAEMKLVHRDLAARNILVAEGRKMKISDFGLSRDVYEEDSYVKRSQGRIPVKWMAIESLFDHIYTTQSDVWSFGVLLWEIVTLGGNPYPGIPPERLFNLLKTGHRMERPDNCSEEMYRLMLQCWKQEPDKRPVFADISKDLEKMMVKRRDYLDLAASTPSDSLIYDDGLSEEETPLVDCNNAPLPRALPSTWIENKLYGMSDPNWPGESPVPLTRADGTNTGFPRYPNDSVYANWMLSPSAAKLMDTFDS
Protocol: (§1) For detailed test methods, the following references were referred to: T. Anastassiadis, S. W. Deacon, K. Devarajan, H. Ma, J. R. Peterson. […] Nat. Biotech.
(§2) The compounds of the present invention were dissolved in dimethyl sulfoxide (DMSO) to prepare 10 mM stock solutions, and ten different doses by 3-fold serial dilutions from 10 mM were prepared. The ATP concentration used in this determination was 1 μM.
(§3) Base reaction buffer: 20 mM 4-(2-hydroxyethyl)-1-piperazineethanesulfonic acid buffer (Hepes, pH 7.5), 10 mM magnesium chloride, 1 mM ethylene glycol-bis(3-aminoethylether)-N,N,N′,N′-tetraacetic acid (EGTA), 0.02% Brij™-35 (purchased from ThermoFisher Scientific), 0.02 mg/mL bovine serum albumin (BSA), 0.1 mM sodium orthovanadate (Na3VO4), 2 mM dithiothreitol (DTT), 1% dimethyl sulfoxide (DMSO).
(§4) a) adding the corresponding substrate to a freshly prepared base reaction buffer;
(§5) b) adding necessary cofactors;
(§6) c) adding kinase and shake gently;
(§7) d) adding the compounds in DMSO using Acoustic technology (Echo550; nanoliter range) and incubating at room temperature for 20 minutes;
(§8) e) adding 33P-ATP (specific activity 10 μCi/μL) to initiate the reaction;
(§9) f) incubating the kinase reaction at room temperature for 2 hours;
(§10) g) spotting the resultant of reaction on P81 ion exchange paper (purchased from Whatman);
(§11) h) detecting kinase activity by filter binding assay.
(§12) IC50 values were generated using Prism (GraphPad software).

RET-CCDC6 = molecular target: T2, RET-CCDC6 (Homo sapiens, UniProt P07949); experiment: Biochemical IC50 of RET-CCDC6 fusion (33P-ATP filter binding, Reaction Biology)
T2 construct: CCDC6 (fusion partner, UniProt Q16204); purchased Reaction Biology Corporation (contract assay; enzyme is the CRO's); the other entry of the earlier key: CCDC6 (Q16204, Coiled-coil domain-containing protein 6)
T2 sequence (P07949 with tags, fused parts or gaps): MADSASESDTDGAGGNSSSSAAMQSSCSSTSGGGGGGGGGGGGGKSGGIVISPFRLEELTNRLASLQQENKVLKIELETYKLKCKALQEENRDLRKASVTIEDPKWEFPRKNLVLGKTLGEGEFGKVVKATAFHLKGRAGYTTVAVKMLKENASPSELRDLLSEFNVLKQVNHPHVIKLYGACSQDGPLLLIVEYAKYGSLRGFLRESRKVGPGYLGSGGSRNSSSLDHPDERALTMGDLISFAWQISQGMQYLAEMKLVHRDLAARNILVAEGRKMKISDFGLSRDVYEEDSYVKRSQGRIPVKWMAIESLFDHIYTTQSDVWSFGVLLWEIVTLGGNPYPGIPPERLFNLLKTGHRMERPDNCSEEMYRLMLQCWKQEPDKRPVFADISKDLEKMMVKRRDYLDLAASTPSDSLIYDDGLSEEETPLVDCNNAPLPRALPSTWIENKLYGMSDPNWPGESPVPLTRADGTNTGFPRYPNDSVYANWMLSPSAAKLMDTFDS
Protocol: as §1, §2, §3, §4, §5, §6, §7, §8, §9, §10, §11, §12

wild-type RET kinase = molecular target: T3, wild-type RET kinase (Homo sapiens, UniProt P07949); experiment: Biochemical IC50 of wild-type RET kinase (33P-ATP filter binding, Reaction Biology)
T3 construct: purchased Reaction Biology Corporation (contract assay; enzyme is the CRO's)
T3 sequence (P07949 29-1114): as the sequence (P07949 29-1114 V804M) above, with M776V counted along it
Protocol: as §1, §2, §3, §4, §5, §6, §7, §8, §9, §10, §11, §12

[1] = test system: Phospho-RET in LC-2/ad lung cancer cells; experiment: Phospho-RET ELISA in LC-2/ad tumor cells; format: cell-based; conditions: Homo sapiens, 1 h, read-out: Cell IC50 Phospho-RET
Protocol: (§13) The compounds of the present invention were dissolved in dimethyl sulfoxide (DMSO) to prepare 10 mM stock solutions, and ten different doses by 3-fold serial dilutions from 10 mM were prepared. An ELISA assay format was used in the test.
(§14) PathScan® Phospho-Ret (panTyr) and p44/42 MAPK (Thr202/Tyr204) (ERK) Sandwich ELISA kits were purchased from Cell Signaling Technology. The LC-2/ad lung cancer cell line was purchased from Sigma-Aldrich. […] The medium was supplemented with 10% fetal bovine serum (FBS), 100 μg/mL penicillin and 100 μg/mL streptomycin, and the cultures were maintained at 37° C. in a humidified atmosphere of 5% CO2 and 95% air.
(§15) a) 1.5×10^4 LC-2/ad cells were seeded in the wells of a 96-well tissue culture plate overnight;
(§16) b) the cells were treated with DMSO or the test compound in DMSO (the initial concentration was 1 μM, and ten doses by 3-fold serial dilutions) for one hour;
(§17) The plate was shaken for 1 minute, then placed on a rocking platform at 4° C. for 30 minutes;
(§18) d) 80 μL/well of lysate was added to the appropriate wells of each ELISA plate and the plate was incubated overnight at 4° C. on a rocking platform;
(§19) e) the contents of the plate were discarded into a container and the wells were washed for four times with 200 μL/well of 1×ELISA wash buffer;
(§20) f) 100 μL of reconstituted Phospho-Ret(panTyr) or Phospho-ERK(Thr202/Tyr204; p44/42MAPK) detection antibody was added to the appropriate wells and the plate was incubated at 37° C. for 1 hour;
(§21) g) the washing procedure was repeated and 100 μL of reconstituted HRP-linked secondary antibody was added to each well of two plates and the plates were incubated at 37° C. for 30 minutes;
(§22) h) the washing procedure was repeated, 100 μL of TMB substrate was added to each well, and the plates were incubated at 37° C. for 45 minutes;
(§23) i) 100 μL of STOP solution was added to each well and the plate was gently shaken for a few seconds.

[2] = test system: Phospho-ERK in LC-2/ad lung cancer cells; experiment: Phospho-ERK ELISA in LC-2/ad tumor cells; format: cell-based; conditions: Homo sapiens, 1 h, read-out: Cell IC50 Phospho-ERK
Protocol: as §13, §14, §15, §16, §17, §18, §19, §20, §21, §22, §23

[3] = RET(V804M) mutant, ATP 1 μM, 33P-ATP filter binding, read-out: Biochemical IC50 RET (V804M)
[4] = RET-CCDC6 fusion, ATP 1 μM, 33P-ATP filter binding, read-out: Biochemical IC50 RET-CCDC6
[5] = wild-type RET kinase, ATP 1 μM, 33P-ATP filter binding, read-out: Biochemical IC50 RET

| SMILES | pIC50 (RET(V804M) mutant; [3]) | pIC50 (RET-CCDC6; [4]) | pIC50 (wild-type RET kinase; [5]) | pIC50 (RET(V804M) mutant) | pIC50 (RET-CCDC6) | pIC50 (wild-type RET kinase) | pIC50 ([1]; LC-2-ad) | pIC50 [2] | pIC50 ([1]; LC-2/ad lung cancer cells, one hour treatment, sandwich ELISA) |
| --- | --- | --- | --- | --- | --- | --- | --- | --- | --- |
| CC(C)(O)COc1cc(-c2ccc(N3CCS(=O)(=NC4CCNCC4)CC3)nc2)c2c(C#N)cnn2c1 [Ex. 7, 6-(2-hydroxy-2-methylpropoxy)-4-(6-(1-oxo-1-(piperidin-4-ylimino)thiomorpholinyl)pyridin-3-yl)pyrazolo[1,5-a]pyridine-3-carbonitrile] | 6.78 | 7.90 | 7.74 |  |  |  |  |  |  |
| Cn1cc(-c2cn3ncc(C#N)c3c(-c3ccc(N4CCC(N=S(C)(C)=O)CC4)nc3)n2)cn1 [Ex. 23, 4-(6-(4-((dimethyloxo-λ^4-sulfinyl)amino)piperidin-1-yl)pyridin-3-yl)-6-(1-methyl-1H-pyrazole-4-yl)pyrazolo[1,5-a]pyrazine-3-carbonitrile] |  |  |  | 7.60 | 8.67 | 8.39 |  |  |  |
| Cn1cc(-c2cn3ncc(C#N)c3c(-c3ccc(N4CCS(=N)(=O)CC4)nc3)n2)cn1 [Ex. 20, 4-(6-(1-imino-1-oxothiomorpholinyl)pyridin-3-yl)-6-(1-methyl-1H-pyrazole-4-yl)pyrazolo[1,5-a]pyrazine-3-carbonitrile] |  |  |  | 8.10 | 9.17 | 8.94 | 7.04 | 8.11 |  |
| Cn1cc(-c2cn3ncc(C#N)c3c(-c3ccc(N4CCC(N=[S@](C)(=O)c5ccccc5)CC4)nc3)n2)cn1 [Ex. 25, 4-(6-(4-(((R)—S-methyl-S-phenyl-oxo-λ^4-sulfinyl)amino)piperidin-1-yl)pyridin-3-yl)-6-(1-methyl-1H-pyrazole-4-yl)pyrazolo[1,5-a]pyrazine-3-carbonitrile] |  |  |  | 7.97 | 8.94 | 8.69 | 7.07 | 8.03 |  |
| CC(C)(O)COc1cc(-c2ccc(N3CCC(N=S(C)(C)=O)CC3)nc2)c2c(C#N)cnn2c1 [Ex. 8, 4-(6-(4-((dimethyloxo-λ^4-sulfinyl)amino)piperidin-1-yl)pyridin-3-yl)-6-(2-hydroxy-2-methylpropoxy)pyrazolo[1,5-a]pyridine-3-carbonitrile] | 7.20 | 8.23 | 8.02 |  |  |  |  |  |  |
| Cn1cc(-c2cn3ncc(C#N)c3c(-c3ccc(N4CCC(N=[S@@](C)(=O)c5ccccc5)CC4)nc3)n2)cn1 [Ex. 24, 4-(6-(4-(((S)—S-methyl-S-phenyl-oxo-λ^4-sulfinyl)amino)piperidin-1-yl)pyridin-3-yl)-6-(1-methyl-1H-pyrazole-4-yl)pyrazolo[1,5-a]pyrazine-3-carbonitrile] | 7.58 | 8.71 | 8.39 |  |  |  |  |  |  |
| COc1ccc(N=S2(=O)CCN(c3ccc(-c4cc(OCC(C)(C)O)cn5ncc(C#N)c45)cn3)CC2)cn1 [Ex. 3, 6-(2-hydroxy-2-methylpropoxy)-4-(6-(1-((6-methoxypyridin-3-yl)imino)-1-oxothiomorpholinyl)pyridin-3-yl)pyrazolo[1,5-a]pyridine-3-carbonitrile] | 8.42 | 9.00 | 8.78 |  |  |  |  |  |  |
| CC(C)(O)COc1cc(-c2ccc(N3CCC(N=[S@@](C)(=O)c4ccccc4)CC3)nc2)c2c(C#N)cnn2c1 [Ex. 9, 4-(6-(4-(((S)—S-methyl-S-phenyl-oxo-λ^4-sulfinyl)amino)piperidin-1-yl)pyridin-3-yl)-6-(2-hydroxy-2-methylpropoxy)pyrazolo[1,5-a]pyridine-3-carbonitrile] | 6.86 | 8.09 | 7.85 |  |  |  |  |  |  |
| CC(C)(O)COc1cc(-c2ccc(N3CCC(N=[S@](C)(=O)c4ccccc4)CC3)nc2)c2c(C#N)cnn2c1 [Ex. 10, 4-(6-(4-(((R)—S-methyl-S-phenyl-oxo-λ^4-sulfinyl)amino)piperidin-1-yl)pyridin-3-yl)-6-(2-hydroxy-2-methylpropoxy)pyrazolo[1,5-a]pyridine-3-carbonitrile] | 7.44 | 8.34 | 8.21 |  |  |  |  |  |  |
| COc1ccc(CN2C3CC2CN(c2ccc(-c4cc(OCC(C)(C)O)cn5ncc(C#N)c45)cn2)C3)cn1 [LOXO292, reference compound] |  |  |  |  |  |  |  | < 6.00 | 8.22 |
| COc1ccc(N=S2(=O)CCN(c3ccc(-c4nc(-c5cnn(C)c5)cn5ncc(C#N)c45)cn3)CC2)cn1 [Ex. 22, 4-(6-(1-((6-methoxypyridin-3-yl)imino)-1-oxothiomorpholinyl)pyridin-3-yl)-6-(1-methyl-1H-pyrazole-4-yl)pyrazolo[1,5-a]pyrazine-3-carbonitrile] | 8.49 | 9.39 | 9.17 |  |  |  |  |  |  |
| Cn1cc(-c2cc(-c3ccc(N4CCC(N=[S@@](C)(=O)c5ccccc5)CC4)nc3)c3c(C#N)cnn3c2)cn1 [Ex. 17, 4-(6-(4-(((S)—S-methyl-S-phenyl-oxo-λ^4-sulfinyl)amino)piperidin-1-yl)pyridin-3-yl)-6-(1-methyl-1H-pyrazole-4-yl)pyrazolo[1,5-a]pyridine-3-carbonitrile] | 7.97 | 9.11 | 8.83 |  |  |  |  |  |  |
| COc1ccc(CN=S2(=O)CCN(c3ccc(-c4cc(OCC(C)(C)O)cn5ncc(C#N)c45)cn3)CC2)cn1 [Ex. 5, 6-(2-hydroxy-2-methylpropoxy)-4-(6-(1-(((6-methoxypyridin-3-yl)methyl)imino)-1-oxothiomorpholinyl)pyridin-3-yl)pyrazolo[1,5-a]pyridine-3-carbonitrile] | 7.75 | 8.68 | 8.44 |  |  |  |  |  |  |
| CC(C)CN=S1(=O)CCN(c2ccc(-c3cc(OCC(C)(C)O)cn4ncc(C#N)c34)cn2)CC1 [Ex. 4, 6-(2-hydroxy-2-methylpropoxy)-4-(6-(1-(isobutylimino)-1-oxothiomorpholinyl)pyridin-3-yl)pyrazolo[1,5-a]pyridine-3-carbonitrile] | 7.25 | 8.34 | 8.17 |  |  |  |  |  |  |
| CC(C)(O)COc1cc(-c2ccc(N3CCS(=N)(=O)CC3)nc2)c2c(C#N)cnn2c1 [Ex. 2, 6-(2-hydroxy-2-methylpropoxy)-4-(6-(1-imino-1-oxothiomorpholinyl)pyridin-3-yl)pyrazolo[1,5-a]pyridine-3-carbonitrile] | 7.67 | 8.55 | 8.37 |  |  |  |  |  |  |
